Read-outs that look alike come from different tables or passages of the source.
Legend:
HDAC9 = target: T1, HDAC9 (Homo sapiens, UniProt Q9UKV0); test: Enzymatic test HDAC9; type: biochemical; settings: Table 3
T1 construct: purchased BPS 50009
Experimental: After a period of incubation at 30° C. (incubation times vary for different isoforms and are shown in table 1) 25 μL of solution containing the substrate were added. As substrate, FLUOR DE LYS® deacetylase substrate (Enzo Life Sciences, cat #BML-K1104, FdL), FLUOR DE LYS®-Green substrate (Enzo Life Sciences, cat #BML-K1572 FdL_G) and trifluoroacetyl-L-lysine (Tfal)-2× concentrated solution in 25 mM Tris-HCl, pH 8, 130 mM NaCl 0.05% Tween-20 10% glycerol) were used. Following a reaction period at 30° C.

[1] = system: regulatory T cell (Treg, CD4+CD25+) suppression activity; test: T CD4 lymphocyte proliferation mediated by mouse regulatory T cells suppression assay; type: cell-based
Experimental: To evaluate the ability of the molecules under this patent to increase regulatory T cell (Treg, CD4^+CD25^+) suppression activity a T-cell (responder T cells, Teff) proliferation suppression assay was used. Treg cells at different concentrations were cultured with Teff cells (CD4^+CD25^−) in the presence of proliferative stimuli. T cells need of two stimuli to proliferate: the first given by the recognition of antigen associated with MHC by T cell receptor (TCR) and the second one derived from co-stimulatory molecules such as CD28. In the absence of a specific antigen, TCR activation can take place with an antibody recognizing one of the composing subunits, CD3ε. In this assay, anti-CD3ε monoclonal antibody and CD4 T cell depleted splenocytes were used as activator stimuli. Therefore, the ability to reduce Teff cells proliferation by Tregs in the presence or absence of HDAC6 inhibitors was assessed.
Treg and Teff cells were separated using the Treg isolation kit based on magnetic beads separation technique (Miltenyi Biotec) through an initial negative selection and a final positive selection process.
Single cell suspension was obtained from spleen of C57BL/6 mice using a 70 μm strainer.
Cell suspension was treated with ACK buffer to lyse red blood cells and then centrifuged for 5 minutes at 300×g. After centrifugation, the cells were resuspended in PBS (Phosphate Buffered Saline, Gibco) and counted. Subsequently, splenocytes were resuspended in a buffer consisting of PBS, 0.5% BSA and 2 mM EDTA.
To proceed with the first step of Treg separation, CD4 negative cells were indirectly magnetically labeled with a cocktail of biotin-conjugated antibodies against CD8a, CD11b, CD45R, CD49b, Ter-119 and Anti-Biotin MicroBeads CD4+ cells were thus obtained by negative selection as flow-through of a magnetic MACS column.
Cells bound to microbeads were eluted and conserved for their use as antigen presenting cells (APC) in the proliferation assay.
In the second step of Treg purification, pre-enriched CD4+ cells were labelled with an R-phycoerythrin (PE)-conjugated anti-CD25 antibody that preferentially binds to Treg cells and magnetic beads coupled with an anti PE antibody. The cell suspension was then loaded on a column. The Teff cells pass through the column without binding (negative selection), while beads-bound Treg cells adhere through the magnetic beads (positive selection). Treg cells were then eluted from the column by buffer flow using a plunger. Treg and Teff cell purification is summarized in FIG. 6. • CD4− cells from first positive selection as APC • Treg CD4+ CD25+ as suppressor cells • Teff CD4+ CD25− as responder/proliferating cells
CD4^− cells were treated with mitomycin C (50 μg/ml, Sigma) for 30 min at 37° C. to prevent their proliferation They were then resuspended at a concentration of 4.0×10^5/50 μl in complete medium (RPMI, FBS10%, penicillin/streptomycin 1×, 50 μM beta mercaptoethanol). Teffs were labeled with carboxy fluorescein succinimidyl ester (CFSE) at a concentration of 2 μM in PBS at 37° C., and after 10 minutes incubation, the reaction was blocked with a 10% FBS PBS solution. CFSE labelling allows covalent modification of Teff cell to analyse their proliferation by fluorescence dilution. The labelled Teffs were then centrifuged and resuspended at the final concentration of 5.0×10^4/50 μl in complete medium. Finally, the Tregs obtained by purification were diluted to the final concentration of 5.0×10^4/50 μl in complete medium.
Then a co-culture of Teff (5.0×10^4), T CD4^− (4.0×10^5) was prepared and Treg cells in different ratios (1:1, 1:2, 1:4, 1:8 ratio Teff to Treg cells) were added thereto. The test compounds at different concentrations or DMSO vehicle were added to the cell suspension. Finally, an anti-CD3ε monoclonal antibody (Miltenyi Biotec) was added at a concentration of 1 μg/ml. Cells were plated in flat bottom 96-well plates and each condition was set up in a technical duplicate. […]

human PBMCs = test: Mixed Lymphocytes Reaction (MLR) with human PBMCs (IFN-γ, TNF-α, IL-6); type: cell-based; settings: PBMC, 144 h, two-way MLR, 6 days, 1 μM, negative = induction
Experimental: In order to study HDAC6 inhibitors ability to inhibit the activation of allogenic T CD4+ cells, a Mixed Lymphocytes Reaction (MLR or mixed lymphocyte culture, CLM) assay was performed. This is a reaction involving blast transformation of in vitro cultured lymphocytes in the presence of allogeneic lymphocytes. There is the so-called “two-way” reaction wherein the two lymphocyte populations stimulate each other to proliferate, and the so-called “one way” reaction, wherein the proliferation of one of the two populations is inhibited by mitomycin C or irradiation, these cells provide proliferation stimulus (stimulator) to the so-called “responder” cells.
Human peripheral blood mononuclear cells (PBMCs) used in MLR were obtained by Ficoll gradient separation from Buffy Coat of healthy donors.
We used a two-way MLR. The cells from the two donors were plated at 1:1 ratio (allogenic stimulation) to the final concentration of 2×10^5 per well in U-bottom 96 well plates in RPMI 1640 medium with 10% FBS and antibiotics. As a control we individually plated the cells from each donor (singenic stimulus). The experiment for each inhibitor was set in deduplicate for allogeneic stimuli and in quintuplicate for singenic stimuli. The cells were cultured for 6 days in an incubator at 37° C.
After 6 days the effect of the test compounds was evaluated by measuring the production of pro-inflammatory cytokines recognized to be characteristics of this assay.
For this purpose, the culture supernatant was harvested and used for IFN-γ, TNF-α and IL-6 inflammatory cytokine assay.
The JAK inhibitor ruxolitinib was used as the active reference compound in the test.
Values in the table indicate the inhibition percentages. Negative values indicate an induction.

[2] = read-out: MLR IFN-γ inhibition percentage
[3] = read-out: MLR IL-6 inhibition percentage
[4] = read-out: MLR TNF-α inhibition percentage

T1 sequence (Q9UKV0 1-1066 isoform Q9UKV0-5): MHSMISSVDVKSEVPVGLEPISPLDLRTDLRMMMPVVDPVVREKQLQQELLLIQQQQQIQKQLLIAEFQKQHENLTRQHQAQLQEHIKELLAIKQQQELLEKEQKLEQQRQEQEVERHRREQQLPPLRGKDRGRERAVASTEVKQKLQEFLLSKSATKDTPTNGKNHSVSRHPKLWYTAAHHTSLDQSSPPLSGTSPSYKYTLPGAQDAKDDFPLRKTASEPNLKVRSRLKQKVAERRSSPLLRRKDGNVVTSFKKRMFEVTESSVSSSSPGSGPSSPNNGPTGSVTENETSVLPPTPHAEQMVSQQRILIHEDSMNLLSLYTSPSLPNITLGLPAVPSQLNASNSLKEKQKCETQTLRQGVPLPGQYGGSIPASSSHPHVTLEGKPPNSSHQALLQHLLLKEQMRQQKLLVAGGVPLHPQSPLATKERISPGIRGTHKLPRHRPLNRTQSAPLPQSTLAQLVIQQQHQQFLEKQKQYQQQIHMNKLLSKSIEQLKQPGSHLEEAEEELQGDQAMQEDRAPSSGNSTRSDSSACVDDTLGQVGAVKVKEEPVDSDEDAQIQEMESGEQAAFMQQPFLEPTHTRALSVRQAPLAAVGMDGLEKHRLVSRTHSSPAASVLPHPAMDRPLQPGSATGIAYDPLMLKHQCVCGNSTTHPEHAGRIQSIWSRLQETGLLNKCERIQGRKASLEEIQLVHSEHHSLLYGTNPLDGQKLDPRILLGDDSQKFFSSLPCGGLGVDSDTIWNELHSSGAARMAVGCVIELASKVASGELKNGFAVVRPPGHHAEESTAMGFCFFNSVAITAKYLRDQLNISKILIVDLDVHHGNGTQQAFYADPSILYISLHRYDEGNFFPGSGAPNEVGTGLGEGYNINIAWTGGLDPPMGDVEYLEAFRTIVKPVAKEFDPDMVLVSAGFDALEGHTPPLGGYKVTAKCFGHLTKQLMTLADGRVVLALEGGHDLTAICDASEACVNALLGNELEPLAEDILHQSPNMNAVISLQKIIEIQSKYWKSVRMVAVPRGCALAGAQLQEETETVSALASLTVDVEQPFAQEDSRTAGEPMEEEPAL

Row | IC50 (HDAC9) [nM] | Compound | RS (relative T-reg suppression, AUC drug/AUC control) ([1]; concentration 1 μM) | inhibition at 1 µM (human PBMCs; [2]) [%] | inhibition at 1 µM (human PBMCs; [3]) [%] | inhibition at 1 µM (human PBMCs; [4]) [%] | RS (relative T-reg suppression, AUC drug/AUC control) ([1]; concentration 0.5 μM)
1 | 452 | Cc1cc(-c2nnc(Sc3ccc(C(=O)NO)cc3)n2C)nn1C [comp. 85, 4-[[5-(1,5-dimethylpyrazol-3-yl)-4-methyl-1,2,4-triazol-3-yl]sulfanyl]benzenecarbohydroxamic acid] | 3.8 | 51.8 | 66.9 | 73.8 | 3.0
2 | 168 | CCN(CC)S(=O)(=O)c1cccc(-c2nnc(Sc3ccc(C(=O)NO)cc3)n2C)c1 [comp. 66, 4-[[5-[3-(diethylsulfamoyl)phenyl]-4-methyl-1,2,4-triazol-3-yl]sulfanyl]benzenecarbohydroxamic acid] | 2.6 | 53 | 12.9 | 42.8 | 
3 | 884 | CCN(CC)S(=O)(=O)c1cccc(-c2nnc(Sc3ccc(C(=O)NO)cc3)n2N)c1 [comp. 61, 4-[[4-amino-5-[3-(diethylsulfamoyl)phenyl]-1,2,4-triazol-3-yl]sulfanyl]benzenecarbohydroxamic acid] | 1.1 | 16 | -21 |  | 

The next lines start with the compound.

Row | Compound | IC50 (HDAC9) [nM] | RS (relative T-reg suppression, AUC drug/AUC control) ([1]; concentration 1 μM) | inhibition at 1 µM (human PBMCs; [2]) [%] | inhibition at 1 µM (human PBMCs; [3]) [%] | inhibition at 1 µM (human PBMCs; [4]) [%] | RS (relative T-reg suppression, AUC drug/AUC control) ([1]; concentration 0.5 μM)
4 | O=C(NO)c1cc(F)c(Cn2nnc(-c3cccs3)n2)c(F)c1 [comp. 65, 3,5-difluoro-4-[[5-(2-thienyl)tetrazol-2-yl]methyl]benzenecarbohydroxamic acid] | 995 | 4.4 | 45 | 5.4 | 67.3 | 
5 | O=C(NO)c1cc(F)c(Cn2nnnc2-c2ccccn2)c(F)c1 [comp. 13, 3,5-difluoro-N-hydroxy-4-((5-(pyridin-2-yl)-1H-tetrazol-1-yl)methyl)benzamide] | 640 | 1.9 | -10.9 | 38.3 | 37.2 | 
6 | O=C(NO)c1cc(F)c(Cn2nnc(-c3ccccn3)n2)c(F)c1 [comp. 6, 3,5-difluoro-N-hydroxy-4-((5-(pyridin-2-yl)-2H-tetrazol-2-yl)methyl)benzamide] | 756 | 1.7 | -6.5 | 15.5 | 13.5 | 
